From patent US10150793B2, “Antagonists of CB1 receptor” (INSERM (Institut National de la Santé et de la Recherche …, priority 2011, dated 2018) come the findings set out here.

In one data set the test system is CHO cells. Nature of the data set: Study of metabolism in vitro in CHO cells, steroids in culture medium by GC/MS. Put shortly: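 CHO-K1 cells were seeded at 25×10^4 cells/well in antibiotic-free DMEM-Glutamax with 10% FBS to assess metabolism of pregnenolone derivatives. Pregnenolone, allopregnanolone, epiallopregnanolone, testosterone and 5α-dihydrotestosterone in culture medium were extracted, purified and quantified by GC/MS.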

The target of another data set is T1, human CB1 receptor (Homo sapiens, UniProt P21554).
T1 construct: host or cells: CHO cells
Nature of the data set: Radioligand binding of the CB1 agonist [3H]CP55,940 in CHO cells. The conditions noted are these: pregnenolone 10^-12 to 10^-4 M. How it is done:
The binding assay for orthosteric binding of pregnenolone has been evaluated using Chinese hamster ovary (CHO) cells expressing the human CB1 receptor.
The CB1 binding of pregnenolone has been evaluated by the affinity of pregnenolone for the agonist site of the human CB1 cannabinoid receptor expressed in CHO cells, determined in a radioligand binding assay of the CB1 agonist [3H] CP 55940. The experiments were performed by CEREP France, using the standard procedures of this provider.

Another data set addresses CB1 receptor (Mus musculus, UniProt P47746). Put plainly: THC inhibition of fEPSP in nucleus accumbens slices. Format: cell-based, mice. Further details: from tissue; host or cells: acute brain slices, nucleus accumbens. Particulars: slices pre-incubated with pregnenolone 100 nM. How it is done: Animals were deeply anesthetized with Isoflourane and transcardially perfused with a sucrose-based physiological solution at 4° C. (in mM: 23 NaHCO3, 70 Choline Cl, 75 Sucrose, 25 Glucose, 2.5 KCl, 1.25 NaH2PO4, 7 MgCl2 and 0.5 CaCl2). The brain was removed and sliced (250-300 μm) in the coronal plane using a vibratome (Campden Instruments, Loughborough, UK). During the slicing process, the brain was maintained in the sucrose-based solution. Immediately after cutting, slices were stored at 32° C. for 40 minutes in a low-calcium artificial cerebrospinal fluid (low-Ca^2+ ACSF) that contained (in mM): 23 NaHCO3, 120 NaCl, 11 Glucose, 2.5 KCl, 1.2 NaH2PO4, 2.4 MgCl2, 1.2 CaCl2. Slices were then stored in low-Ca^2+ ACSF at room temperature until recording.
For fEPSPs, extracellular glass recording and stimulating electrodes were filled with ACSF. Synaptic potentials were evoked by means of two electric stimuli (0.1-0.25 mA, 200 μsec duration) delivered at 20 Hz every 10 seconds. Stimulating electrode was placed at a distance>150 μm in the dorsomedial direction from the recoding electrode.
In order to test the effect of pregnenolone on a wider range of THC concentrations, we recorded fEPSP in NAc slices. Due to the possibility to achieved stable fEPSP measurements for several hours, this technique is ideally suited to perform dose-response curves and has previously been used to address CB1 receptor function (Robbe et al., 2001; Mato et al., 2004). Thus, AMPAR-mediated evoked fEPSP were recorded by electrically stimulating local axons.

[1] abbreviates: culture medium of treated CHO cells, 0 = concentrations below the detection limit.
Where [2] appears, read: culture medium, pregnenolone 1 μM, 48 hours.

Chain of CB1 receptor (P47746 whole entry, the tested form may be a part): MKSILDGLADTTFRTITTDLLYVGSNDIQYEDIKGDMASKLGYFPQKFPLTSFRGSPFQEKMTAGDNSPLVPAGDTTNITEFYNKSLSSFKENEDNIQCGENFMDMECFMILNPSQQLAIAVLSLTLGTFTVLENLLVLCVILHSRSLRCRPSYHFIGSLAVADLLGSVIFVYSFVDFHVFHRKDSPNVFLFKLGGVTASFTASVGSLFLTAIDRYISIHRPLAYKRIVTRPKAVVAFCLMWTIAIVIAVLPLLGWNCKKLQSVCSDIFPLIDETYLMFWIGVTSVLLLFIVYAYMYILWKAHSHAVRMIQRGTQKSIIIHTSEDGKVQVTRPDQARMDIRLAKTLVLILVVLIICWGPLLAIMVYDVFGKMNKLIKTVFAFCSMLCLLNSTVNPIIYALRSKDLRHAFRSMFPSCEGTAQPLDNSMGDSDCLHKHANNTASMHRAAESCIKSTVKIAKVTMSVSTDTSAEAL
T1 sequence (P21554 whole entry): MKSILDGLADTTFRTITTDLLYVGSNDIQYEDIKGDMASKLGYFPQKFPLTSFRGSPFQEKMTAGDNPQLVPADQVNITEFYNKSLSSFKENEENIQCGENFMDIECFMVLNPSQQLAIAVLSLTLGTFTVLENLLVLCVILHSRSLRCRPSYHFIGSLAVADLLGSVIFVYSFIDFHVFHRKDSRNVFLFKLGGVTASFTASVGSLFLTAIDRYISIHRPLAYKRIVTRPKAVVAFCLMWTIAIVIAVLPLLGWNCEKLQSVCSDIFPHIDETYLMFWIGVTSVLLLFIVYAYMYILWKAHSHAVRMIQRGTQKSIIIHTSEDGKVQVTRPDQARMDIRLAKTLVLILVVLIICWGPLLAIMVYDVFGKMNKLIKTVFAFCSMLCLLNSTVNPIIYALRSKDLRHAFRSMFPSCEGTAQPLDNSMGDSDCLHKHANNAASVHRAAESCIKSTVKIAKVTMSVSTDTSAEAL

In the data set with CHO cells (setting [1]), `CC(=O)[C@H]1CC[C@H]2[C@@H]3CC=C4C[C@@H](O)CC[C@]4(C)[C@H]3CC[C@]12C` [Pregnenolone, 5-Pregnen-3β-ol-20-one] displayed a DHEA of 0.00 pg/mL and a TESTO of 0.00 pg/mL. Further, in the data set with CHO cells (setting [2]), the ALLO steroid levels was determined as 3529.99 pg/mL, the EPIALLO steroid levels was 16963.84 pg/mL, the PREG steroid levels worked out at 11440.66 pg/mL and the THDOC steroid levels was 77.47 pg/mL. Moreover, on human CB1 receptor, the “orthosteric binding of the CB1 agonist [3H]CP55,940” value is “did not modify the specific binding”. Moreover, the “orthosteric binding of the CB1 agonist [3H]CP55,940” value on human CB1 receptor (listed as pregnenolone) is “did not displace the orthosteric binding”. Also, at CB1 receptor (THC 10 μM), the “inhibition of fEPSP by THC” value is listed as 11.1±3.2%. In addition, the “inhibition of fEPSP by THC” value against CB1 receptor (THC 20 μM) came to 22.7±2.7%. In addition, the “inhibition of fEPSP by THC” value on CB1 receptor (THC 40 μM) worked out at 34.6±3.1%.
